Laboratory results from ChEMBL document CHEMBL3507680, “University of Dundee, Gates Library screen for HepG2 cell viability”.

Experiment: Human HepG2 cell viability assay in 384 well format
Assay type: toxicity, cell-based
Set-up: dose 125 nL, time 70.5 hour; cytotoxicity at 70.5 h: concentration not given beside the values
Conditions: HepG2 cells, read-out: Inhibition

Compound	cytotoxicity at 70.5 h [%]
Cc1nn(C)c2c(NCc3ccccc3F)nc(C3CC3)nc12	-5.5
Cc1csc(CCNC(=O)N2CCC(NC(=O)OC(C)(C)C)CC2)n1	-11.5
O=C(NCCn1cccc1)C1CCC(=O)N(C2CCCC2)C1 (configuration not stated)	-8.05
Cc1nc(CN2CCCC2c2nc(C(C)C)no2)cs1 (configuration not stated)	-2.96
CC(NC(=O)NC1CCN(Cc2ccccc2)CC1)c1nncn1C (configuration not stated)	2.2
CC(C)=CCC/C(C)=C/CN1CCN(C)C2(CCNC(=O)CC2)C1 (configuration not stated)	-9.38
CC(C)(C)c1cc(NC(=O)CN2CCCC2Cn2cncn2)on1 (configuration not stated)	21.1
NC(=O)C1(CNC(=O)CCc2ccc(Cl)s2)CCOCC1	-7.77
Cc1cccc(OC2CCN(c3nc(N)nc4[nH]cnc34)CC2)c1	-1.39
Cc1nc(CN2CCO[C@H]3CN(C(=O)c4cscn4)C[C@H]32)cs1	-5.86
Cc1ccc(CN(C)C(=O)CN2CCCC(Cn3cncn3)C2)cc1 (configuration not stated)	22.9
Cc1nn(CC(=O)N2CCN(c3ccc(F)cc3)CC2)c(C)c1Cl	26.3
CN(C)[C@@H]1CN(C(=O)Cc2cccc(F)c2)[C@@H]2CCCO[C@H]12	-1.9
Cc1ccc(CN2CCN(C3CCC3)CC2CCO)o1 (configuration not stated)	-10.1
CCc1cc(C(=O)N2CCC(C3CCN(c4ncccn4)CC3)C2)on1 (configuration not stated)	2.57
CCN1CCN(C(=O)c2ccn(C)c(=O)c2)CC1	32.5
CC1(C)Cc2ccc(C(=O)NC3CCOCC3)c(O)c2O1	7.2
CC(=O)N1CC[C@H]2OCC[C@@]2(C(=O)NCc2cnc(C)cn2)C1	-5.25
CC(C)NC(=O)N1CCN2C(=O)OC[C@H]2C1	10.9
Cn1cc(I)c(C(=O)NC2CCCC2)n1	10.4
CCN(C)C(=O)CCC(=O)c1cccs1	-7.69
CCS(=O)(=O)N1CC[C@H]2C(=O)N(Cc3cccnc3)CCO[C@H]2C1	-13.9
N#Cc1ccnc(N2CCN(C(=O)NC3CCS(=O)(=O)C3)CC2)c1 (configuration not stated)	-7.36

Compound	cytotoxicity at 70.5 h [%]
CCc1nccn1C1CCCN(C(=O)Cc2cn3ccsc3n2)C1 (configuration not stated)	-11.7
Cc1cc(NC(=O)CN(CC2CCOC2)C2CC2)no1 (configuration not stated)	0.647
CC(C)(C)CCNc1nccc(-c2c[nH][nH]c2=O)n1	-4.19
CC(C)NC(=O)c1nc2c(s1)CCCN2c1ccccc1	5.99
c1csc(N2CCCN(c3nccn4cnnc34)CC2)n1	3.4
CN(C)CCn1c2c(ccc1=O)CCN(Cc1cnn(C)c1)CC2	2.16
CCc1nnc2n1CCN(c1nc(C)cc(N(C)C)n1)C2	-13.4
CC(C)(C)n1ncc2c1NC(=O)CC2c1ccc(OCC(N)=O)cc1 (configuration not stated)	-10.7
COc1ccc(CN2C[C@H]3CN(c4ccsc4)C(=O)[C@H]3C2)cc1	-20.7
CNS(=O)(=O)c1ccc(CNC(=O)NCc2cc[nH]n2)cc1	-12.9
Nc1cc(-c2c[nH]nc2C2CCCCN2C(=O)C2CCCC2)ccn1 (configuration not stated)	-7.49
CCc1nccn1CCC(=O)N1CCN(c2ccccc2C)CC1C (configuration not stated)	-10.2
CCCC1(C(=O)O)CCCN(C(=O)c2cc(Cl)ccc2F)C1 (configuration not stated)	-13.1
CN(C)C(=O)CC1CC2(CCN(CC3CC3)CC2)c2cc(F)ccc21 (configuration not stated)	35.7
CN(C)CC(=O)N1CC2(CCN(Cc3ccccc3)C2)C1	35.2
O=C(c1c2c(NCC3CC3)ncnc2n2ccccc12)N1CCCC1	0.851
COc1cc(C(=O)N(Cc2cccs2)C2CC2)cc2c1OCCO2	16
Cc1ccc(CN2CCc3ncnc(C4CCOC4)c3CC2)s1 (configuration not stated)	2.16
CC(C)N1CCOC[C@H]1c1nc(-c2ccncc2)c[nH]1	-1.74
c1cc2cc[nH]c2c(CC2CN(Cc3cncs3)C2)n1	7.7
Cc1ccc(N2CCC3(CC2)CCN(C2CCOC2)CC3)nn1 (configuration not stated)	-6.73
Cc1cnccc1-n1nc(C(C)C)nc1CCc1cnccn1	-19.8
COCCN1CCN(Cc2c(C)noc2C)Cc2ccc(C)nc21	-1.53

Compound	cytotoxicity at 70.5 h [%]
Cc1cnn(CC2CCCN2C(=O)c2csc(C(C)C)n2)c1 (configuration not stated)	17.5
COc1ccccc1OCCc1nnc(NC(=O)C2CC23CCC3)s1 (configuration not stated)	-2.4
O=C(O)c1cc2c(nc1O)CC(c1cccs1)CC2=O (configuration not stated)	-3.98
Cc1cc(C(=O)NCC(F)(F)F)c2c(C3CCCN3)noc2n1 (configuration not stated)	-7.21
Cc1cc(CN2CCCn3nc(CCC(=O)O)cc3C2)ccc1F	2.51
O=C([C@H]1CCCO1)N1CCC2(CCCN(CCOc3ccccc3)C2)C1 (some centres not stated)	20.8
Cc1noc(C)c1C(C)NC(=O)N1CCN(c2cccs2)CC1 (configuration not stated)	6.76
COCc1ncc(-c2nccn2CCN(C)C)cn1	-2.63
CCNc1ccnc(N2CCCC(CCOC)(C(=O)O)C2)n1 (configuration not stated)	23.1
CN1CCN(C(=O)c2nc3c(o2)CN(C(=O)c2cccnc2)C3)CC1	-6.31
CCNC(=O)[C@@H]1C[C@@H](n2cc(CC3CCCCC3)nn2)CN1	-9.79
CCc1c(O)nc(SCC(=O)Nc2ccccc2)n(C(C)CC)c1=O (configuration not stated)	22
Cn1cc(-c2ncc3c(c2C(=O)O)CCN(Cc2ccccn2)C3)cn1	-1.31
CCOCCCC(=O)N1CCCC1c1nc(-c2ccccc2F)c[nH]1 (configuration not stated)	-2.77
CN(C)CCOCC1CN(C(=O)[C@H]2CCCO2)Cc2ccnn2C1 (some centres not stated)	-1.09
O=C(NC1CCCCC1)N1C[C@H]2CN(c3cnccn3)C[C@@]2(C(=O)O)C1	-14.9
CN1C[C@H](O)[C@]2(CCN(Cc3ccc(OC(F)(F)F)cc3)C2)S1(=O)=O	-1.23
O=C(NCc1csc(Br)c1)Nc1cn[nH]c1	39.3
CNC(=O)CC1CC2(CCN(CC3CC3)CC2)Oc2ccccc21 (configuration not stated)	-6.72
CCn1ccnc1CN1CCN(C(C)C)CC1C (configuration not stated)	-3.75
CCc1ncc(CN(CCc2ccccc2)Cc2cccs2)cn1	-2.18
O=C(c1ccnnc1)N1CCn2cc(CN3CCCCC3)nc2C1	-4.84
O=C(c1cscn1)N1C[C@@H]2C[C@@H](c3nnc(C4CC4)o3)O[C@@H]2C1	-8.28

Compound	cytotoxicity at 70.5 h [%]
CC(CCc1ncnn1Cc1cccc(Cl)c1)N1CCCC1 (configuration not stated)	-9.23
CCc1c(C)nc2n(c1=O)CC(C(=O)Nc1nc3c(s1)CCCC3)CS2 (configuration not stated)	12.5
CC(C)S(=O)(=O)C(C)C(=O)Nc1ccc2oc(C3CC3)nc2c1 (configuration not stated)	-2.28
c1ccc2c(N3CCCCC3Cn3cccn3)ncnc2c1 (configuration not stated)	-1.4
Cc1cc(=O)n2nc(-c3cccs3)nc2n1CC(=O)NC(C)C	-24
CCCOC1CCCN(Cc2nc(-c3ccc(F)cc3F)oc2C)C1 (configuration not stated)	-5.84
CN(Cc1nc(C2CC2)no1)C(=O)c1cccc(CC2CCNCC2)c1	-5.09
O=C(C1CC(F)(F)C1)N1C[C@@H]2CN(Cc3ccoc3)CCO[C@@H]2C1	-3.45
O=C1CC(CNc2cncc(Br)c2)c2ccccc2N1 (configuration not stated)	3.03
O=C(Nc1cnc2n1CCCC2)C1CCCN1C1CCNCC1 (configuration not stated)	-15
CNC(=O)[C@H]1CCS(=O)(=O)[C@@H]2CN(Cc3ccc(OC)cc3)C[C@H]12	-4.04
CCc1cc(CNC(=O)N2CCN(c3nc(C)c(C)s3)CC2)on1	-3.25
Cc1cc(N[C@H](CO)COCc2ccccc2)n2nc(C)cc2n1	-0.86
O=C1COC2(CCN(CC3CCOCC3)CC2)CN1Cc1ccccn1	-0.458
COc1ccccc1NC(=O)CC(C)NCCc1sc(C)nc1C (configuration not stated)	8.63
Cc1cc(-n2cncn2)ccc1C(=O)Nc1ccc(N2CCCC2)cn1	-1.24
O=C1Nc2ccccc2C12CCN(Cc1ccccn1)CC2	0.291
COc1ccc(Cn2c(Cc3c(C)n[nH]c3C)n[nH]c2=O)cc1	-12.9
Cc1ccc(N2CC3(CCN(Cc4nccn4C)C3)CC2=O)s1 (configuration not stated)	-14.5
Cc1cc(C)n(CC2CN(CC(=O)NC3(C#N)CCCC3)CCO2)n1 (configuration not stated)	-3.7
O=C(NCc1ccc(Br)cc1)NCC1CCOC1 (configuration not stated)	-10.4
COc1ccc(C(=O)Nc2ccccc2-c2ccc(=O)n(C)n2)nn1	1.94
Cc1cc(N2CCN(C3CCSCC3)CC2)n2nc(C)c(C)c2n1	-5.2

Compound	cytotoxicity at 70.5 h [%]
NC1(CNC(=O)c2cc3ccccc3[nH]2)CCCC1	16
CCC(O)CN1CCN(C(=O)Cc2cc(C)ccc2OC)CC1 (configuration not stated)	-1.58
Cc1csc(Nc2nccnc2C2CCCN2CC(N)=O)n1 (configuration not stated)	11
Cc1nc(N2C[C@@H](CN3CCCN(C)CC3)[C@@H](CO)C2)c2sccc2n1	27.9
Cc1noc(Cl)c1CCC(=O)N1CCN(c2ncccn2)CC1	-7.01
COC(=O)c1ccc(CN(C)C(=O)c2cnsn2)cc1	-14.6
COc1ccc(-c2noc([C@@H]3C[C@@H](O)CN3C3CCOCC3)n2)cc1	41.8
O=C(c1cccc(N2CCCC2=O)c1)N1CCCC(n2cccn2)C1 (configuration not stated)	-6.59
N#Cc1ccc(S(=O)(=O)N2CSCC2C(=O)NCC(F)(F)F)cc1 (configuration not stated)	-5.51
CN(C)C(CNC(=O)c1ncoc1-c1ccccc1)c1ccsc1 (configuration not stated)	-11.1
COCCC(=O)N1CCC2(CCCN2Cc2cccc(Cl)c2)C1 (configuration not stated)	-53.8
CCN(CC)Cc1ccc(C(=O)NC2CCc3cc(Cl)ccc32)o1 (configuration not stated)	21.2
Cn1cnnc1C1CCCN(C(=O)NCCc2ccccn2)C1 (configuration not stated)	-4.27
CCc1nc(CN(C)C(=O)C2CC(=O)N(c3cccc(O)c3)C2)no1 (configuration not stated)	3.57
CNc1cc(C)nc(-c2cc(NC)nc3[nH]ccc23)n1	-8.84
Cc1nc(N2C[C@H]3CNC[C@H]3C2)c2sccc2n1	5.86
Cn1cc(NS(=O)(=O)c2ccc(OC(F)(F)F)cc2)ccc1=O	18
Cc1nnc(SCC(=O)N2CCC3(CC2)c2ccccc2CC3O)o1 (configuration not stated)	20.7
Cc1nc(CNC(=O)c2cc(Cn3ccnc3C(C)C)[nH]n2)sc1C	-14.3
Cc1[nH]n(-c2ccccc2)c2nnc(N)c1-2	-2.04
